According to patent US6365629B1, “Fatty acid esters of aromatic alcohols and their use in cosmetic formulations” (Alto, Inc., priority 1999, dated 2002):

How the values were obtained:
Rats = experiment: Oral LD50; type: in vivo
Source text: The test procedure employed is described in the “Appraisal of the Safety of Chemicals in Foods, Drugs and Cosmetics” published by the Food & Drug Officials of the United States.

rabbit eyes = experiment: Eye irritation study; type: in vivo, albino rabbits; conditions: 0.1 ml instilled into one eye, nine rabbits
Experimental: The test procedure employed is described in the Appraisal of the Safety of Chemicals in Foods, Drugs and Cosmetics, published by the Association of Food and Drug Officials of the United States. Nine normal healthy albino rabbits were used for this study.
Each of the nine animals had 0.1 ml of the test material (benzyl linoleate) instilled into one eye of each test animal. The other eye was untreated and observed as a control. Two seconds after instillation of the test material, a washout was conducted in 3 of the rabbits using 20 ml. of warm water. Four seconds after test material instillation, washout was conducted in 3 additional rabbits using 20 ml. of warm water. All animals were examined frequently during the seven following days.

Skin = experiment: Dermal irritation study (primary irritation of the skin); type: in vivo; conditions: 0.5 ml/patch, 4 patches on each of 6 rabbits
Experimental: The test procedure employed is described as Local Toxicity, Primary Irritation of the Skin in “Appraisal of the Safety of Chemicals in Foods, Drugs and Cosmetics” published by the Food & Drug Officials of the United States.
The dose to test the response was 0.5 ml/patch with 4 patches on each of 6 rabbits. The results indicated a primary skin irritation index of 2.375.

In the case of `CCCCC/C=C\C/C=C\CCCCCCCC(=O)OCc1ccccc1` [Benzyl Linoleate], the “Oral LD50” value (Rats; rat, in vivo, po) is reported as 7.0 mL/kg, the “gross autopsy findings on dead animals” value (Rats; rats, oral LD50 study) is reported as “hemorrhagic lungs, dark livers and spleens, slight hemorrhagic stomachs and intestines and pale kidneys” and the “eye irritation classification according to the reference” value (rabbit eyes) is reported as “non-irritating”. For the same compound, the “irritation in rabbit eyes” value (rabbit eyes; with and without washout, observed seven days) was “no irritation”, the “primary skin irritation index” value (Skin) was 2.375 and the “skin irritation classification in this test system” value (Skin) was “moderate irritant”.
